This note sets out measurements from patent US20210238225A1, “PEPTIDOMIMETIC INHIBITORS OF THE PEPTIDYL-PROLYL CIS/TRANS ISOMERASE (PIN1)” (DANA-FARBER CANCER INSTITUTE, INC., priority 2018, published 2021).

For experiment [1], the target named is Pin1 Cys 113 (Homo sapiens, UniProt Q13526). In words: Covalent labeling (intact MS). The format is binding. On the procedure: 5 μg of purified Pin1 protein in 50 μL of 20 mM HEPES pH 7.5 and 75 mM NaCl was incubated with 5 μM of respective Pin1 inhibitors for 0-3 hr. A Shimadzu XR HPLC was used to inject the entire sample onto a self-packed reverse-phase column (1/32 in outer diameter×500 μm inner diameter, 5 cm of POROS 50R2 resin). After desalting, protein was eluted with an HPLC gradient (0%-100% B in 4 min, A=0.2 M acetic acid in water, B=0.2 M acetic acid in acetonitrile, flow rate=10 μl/min) into a LTQ XL mass spectrometer (Thermo Fisher Scientific, San Jose, Calif., USA). LTQ XL MS spectra were acquired in centroid mode using the electron multipliers for ion detection. Mass spectra were deconvoluted using MagTran1.03b2 software (Zhang and Marshall, J. Am. Soc. Mass Spectrom. 9:225-233 (1998)).

Experiment [2] deals with phosphoRb (S780), phosphoRb (S801/811), β-Catenin, cJun, cMyc and phosphoH3 (S10). In words: Downstream signaling, western blot in TNBC MDA-MB-231 cells. The format is cell-based. As to conditions: 10 μM, 1, 2, 4, 6 and 8 hours. On the procedure: TNBC MDA-MB-231 cells were plated in 6-well plates at a density of 100,000 cells per well in 2 mL media. The day after plating, cells were treated with the indicated concentration of compound 18, and harvested at 1, 2, 4, 6, and 8 hours. To harvest, the cells were washed with PBS, and then lysed in RIPA Lysis Buffer (Thermo Scientific™, cat. #89900, with protease inhibitors (Roche). Lysates were clarified by centrifugation (14,000 rpm for 15 min at 4° C.), and protein concentrations were determined by BCA. The samples were normalized and prepared in 4× LDS+10% β-mercaptoethanol, and were then boiled at 95° C. for 5 minutes. Lysates were probed for specified proteins by western blotting using the Bolt system (Life Technologies™).

Experiment [3] has as its target Pin1 (GST-Pin1) (Homo sapiens, UniProt Q13526). In words: Fluorescence polarization (FP) assay, binding to Pin1.
Experiment [4] deals with T1, Pin1 (Homo sapiens, UniProt Q13526). In words: Lysate target engagement (pull down with biotinylated probes; competition assay). The format is binding. Further details: endogenous in cells; host or cells: MDA-MB-231. The essentials: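 MDA-MB-231 (TNBC) lysates, 500 μg protein, incubated 1 h at 4 °C with compound, then streptavidin pull-down 2 h at 4 °C; western blot read-out. Competition format: lysate pre-incubated overnight at 4 °C with competitor, then 1 μM desthiobiotin probe for 1 h before pull-down.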

The subject of experiment [5] is PATU-8988T cells. As to the kind of experiment: Time-dependent antiproliferative activity (CellTiter-Glo). As to conditions: Day 0, 2, 4, 6 and 8. The format is cell-based. On the procedure: PATU-8988T cells were plated at a density of 100 cells per well in 100 μL media in a 96-well white clear bottom plate (Corning cat #3903), with at least one plate per time point (Day 0, 2, 4, 6 and 8). Cells were treated the day after plating with 1 μL of DMSO or Compound 18 to give the indicated concentrations, and were then incubated at 37° C. 5% CO2. Every 48 hours, the media was aspirated and replaced with fresh media containing fresh compound or DMSO. When the indicated time points had been reached, cell viability was evaluated using the CellTiter-Glo Luminescent Cell Viability Assay (Promega cat #G7570) according to the manufacturer's standards, measuring luminescence using an Envision plate-reader. The Day 0 time point plates were read the day after plating, prior to compound treatment. N=3 biological replicates were used for each treatment condition.
(Cellular ATP, detected with luciferase, serves as a proxy for viable cell number.)

Experiment [6] concerns the target T1, Pin1. As to the kind of experiment: Cellular target engagement, live cell biotin competition assay in TNBC MDA-MB-231 cells. Format: cell-based. Further details: endogenous in cells; host or cells: MDA-MB-231. In short, it runs like this:
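Cells treated 5 h with compound, then lysed; lysates incubated with 1 μM biotin probe compound 1 h at 4° C and pulled down on streptavidin agarose 2 h at 4° C. Bound Pin1 versus input detected by western blot.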

Entries after “also recorded” stand apart in the source; their conditions may differ. Like-named read-outs stand apart in the source and are kept apart here. Non-standard residues stand in square brackets, D forms with d. Residues, ends and D or L forms follow the SMILES beside them. *: point of attachment. NMeF = CN[C@@H](Cc1ccccc1)C(=O)O; Cit = NC(=O)NCCC[C@H](N)C(=O)O; Pip = O=C(O)[C@@H]1CCCCN1; ClAc = O=C(CCl)* Where only a bound is given, the exact number is not on record here.

T1 sequence (Q13526 whole entry): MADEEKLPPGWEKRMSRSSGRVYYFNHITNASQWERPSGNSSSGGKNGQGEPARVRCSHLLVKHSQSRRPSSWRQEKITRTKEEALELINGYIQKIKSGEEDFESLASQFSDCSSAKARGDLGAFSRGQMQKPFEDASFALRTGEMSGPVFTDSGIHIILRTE
Chain of Pin1 (GST-Pin1) (Q13526 whole entry): as above
Chain of Pin1 Cys 113 (Q13526 whole entry): as above

For the compound `CCOC(=O)[C@H](CCCNC(N)=O)NC(=O)[C@H](Cc1c[nH]c2ccccc12)NC(=O)[C@@H]1CCCCN1C(=O)[C@H](Cc1ccccc1)N(C)C(=O)CCl` [Compound 18, Ethyl (S)-2-((S)-2-((S)-1-(N-(2-chloroacetyl)-N-methyl-L-phenylalanyl)piperidine-2-carboxamido)-3-(1H-indol-3-yl)propanamido)-5-ureidopentanoate] (ClAc-[NMeF][Pip]W[Cit]-OEt), the “covalent labeling of Pin1” value in experiment [1] (30-minute room temperature incubation at 1:1 Pin1:compound) is 100%. Besides, in experiment [1] (purified Pin1 with 5 μM inhibitor, 0-3 hr), the “Covalent? (In tact MS), % labeling” value is recorded as “Yes (100%”. Further, in experiment [2], the “downstream signaling changes (FIG. 9)” value is “a decrease in phosphoRb, β-Catenin, cJun, phosphoH3 (S10), and a temporary increase in c-Myc; also recorded: induced changes in downstream signaling”. The Ki (in general, a measure of affinity in units of concentration, obtained from inhibition or displacement) in experiment [3] (read-out: Ki quoted in figure legend, assay not named) came out at 0.02 µM; in experiment [3] (text and figure legend, read-out: Ki (fluorescence polarization, FIG. 1B)), 0.02 µM. Besides, the “competition with compound 2c for Pin1 (FIG. 6B legend)” value in experiment [4] (HEK 293 cell lysate as printed in legend) was “competes with compound 2c for binding of Pin1”. Also, the “lysate target engagement by competition with 1 μM compound 2c (FIG. 6B)” value in experiment [4] (TNBC-MDA-MB-231 cell lysate, pre-incubation overnight at 4° C.) is reported as “potently engaged Pin1”. For the same compound, in experiment [4] (TNBC-MDA-MB-231 lysate, biotin/dtb probes: pull down, others: competition, concentration under E5), the “Lysate Target Engagement?” value is reported as “Yes-”. Moreover, the “Lysate Target Engagement? concentration stated for the engagement or pull down” value in experiment [4] (read with the E4 line of the same compound (complete, partial, probe pull down)) turned out to be 500 µM. The “cell viability (FIG. 10)” value in experiment [5] is “dose-dependent and time-dependent defects in cell viability”. Further, the “concentration at which cellular Pin1 is fully engaged (FIG. 7B)” value in experiment [6] (TNBC MDA-MB-231 cells, 5 hours) was not above 5 µM. Besides, the “Cellular Target Engagement?” value in experiment [6] (TNBC MDA-MB-231 cells, 5 hours treatment, concentration under E7) is on record as “Yes-Complete”. Further, in experiment [6] (TNBC MDA-MB-231 cells, read with the E6 line), the “Cellular Target Engagement? concentration stated for complete engagement” value is given as “at 5 μM”. The “live cell competition with compound 2-32 (FIG. 7B legend)” value in experiment [6] (preincubation of live TNBC-MDA-MB-231 cells with increasing concentrations) is given as “outcompetes compound 2-32 for Pin1 binding”.
